According to US20250353827A1, “INDOLINE DERIVATIVES AS SEROTONERGIC AGENTS USEFUL FOR THE TREATMENT OF DISORDERS RELATED THERETO” (MINDSET PHARMA INC., priority 2022, published 2025):
Values joined by “and” are separate entries in the source; they are usually repeats but may differ in a detail not shown here. Equal entries are not always repeated.

Columns and labels:
[1] = Liver microsomes stability, rat; conditions: rat; for CLint scaled at 2 μM / Predicted hepatic CL / half-life at 2 μM / microsomal CLint at 2 μM: liver microsomes
[2] = molecular target: T1, human 5-HT2A (h5-HT2A) receptor (Homo sapiens, UniProt P28223); assay: FLIPR assay, human 5-HT2A receptor under agonist mode; type: cell-based; conditions: 5-HT2A (FLIPR); for RFU@10 μM: RFU=Fmax−Fmin; for EC50: read-out: EC50
T1 construct: expressed in transfected cells; cultured under G418 and hygromycin B selection
T1 sequence (P28223 whole entry): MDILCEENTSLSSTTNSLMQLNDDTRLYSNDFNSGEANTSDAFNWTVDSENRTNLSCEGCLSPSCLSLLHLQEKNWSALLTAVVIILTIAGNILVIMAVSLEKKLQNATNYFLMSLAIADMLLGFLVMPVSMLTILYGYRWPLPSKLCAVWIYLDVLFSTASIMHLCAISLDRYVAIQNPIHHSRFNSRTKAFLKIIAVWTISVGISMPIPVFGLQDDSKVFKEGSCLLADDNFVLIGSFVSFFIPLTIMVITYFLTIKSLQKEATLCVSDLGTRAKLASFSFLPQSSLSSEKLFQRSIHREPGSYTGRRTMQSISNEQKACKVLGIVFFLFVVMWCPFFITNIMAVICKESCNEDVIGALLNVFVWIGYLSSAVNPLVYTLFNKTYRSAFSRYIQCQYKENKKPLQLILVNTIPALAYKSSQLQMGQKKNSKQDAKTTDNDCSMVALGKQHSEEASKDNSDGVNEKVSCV
Description: I. Assessment of the Effect of Exemplary Compounds of Formula I Targeting on Human 5-HT2A (h5-HT2A) Receptor Under Agonist Mode
• 1. Cells were cultured in cell culture medium (DMEM containing 10% FBS, 1×penicillin-streptomycin 300 μg/ml G418 and 100 μg/ml hygromycin B) at 37° C., 5% (v/v) CO2. • 2. One day before the assays, the cells were detached using TrypLE™ Express and cells were counted using cell counter. Only cells with >85% viability were used for the assay. • 3. 20000 cells/well were seeded in 30 μl/well culture medium to a 384-well cell plate and cells were incubated overnight at 37° C., 5% (v/v) CO2. • 4. On the assay day, 2×dye solution was prepared following the manual of the FLIPR® Calcium 6 Assay Kit: i. The dye was diluted with assay buffer (20 mM HEPES in 1× HBSS, PH7.4); ii. Probenecid was added to the final concentration of 5 mM; iii. Vortex vigorously for 1-2 minutes. • 5. Medium was removed from cell plate by flicking the cell plate on towel papers. • 6. 10 μl of assay buffer and 10 μl of 2×dye solution was added to each well of the cell plate. • 7. The cell plate was placed on plate shaker, the plate was agitated at 600 rpm for 2 minutes. The plate was incubated at 37° C. for 2 hours followed by additional 15-minute incubation at 25° C. • 8. 3×compound in assay buffer was prepared: a. Reference compounds were diluted to required concentration with DMSO. The compounds were added to a 384-well compound plate; b. Serial dilutions were performed; c. 10 mM test compounds were added to the compound plate, and 3-fold serial dilutions were performed. d. Transfer 60 nl/well of compounds from source plate to a 384-well compound plate (Corning, 3657) by using an Echo; e. Add 20 μl/well assay buffer to the compound plate; f. Mix the plate on plate shaker for 2 mins; • 9. The cell plate, compound plate and tips were put into FLIPR, 10 μl of 3× compound was transferred to the cell plate per well with FLIPR.
• i. The normalized fluorescence reading (RFU) was calculated as shown below, where Fmax and Fmin stand for maximum and minimum of calcium signal during defined time window: RFU=Fmax−Fmin. • ii. Calculate the percentage activation using following equation:
[formula] • Iii. Calculate EC50 by fitting % activation against log of compound concentrations with Hill equation using XLfit.
Exemplary compounds of Formula I were evaluated functionally using FLIPR assay for their effect on h5-HT2A receptor under agonist mode.

[3] = Liver microsomes stability, mouse; conditions: for CLint scaled at 2 μM / half-life at 2 μM / microsomal CLint at 2 μM: male, microsomes; for CLint scaled at 2 μM / half-life at 2 μM / microsomal CLint at 2 μM / Remaining Percentage: mouse; for Predicted hepatic CL: mouse liver microsomes
Description: (§1) The objective of this study was to estimate in vitro metabolic stability of representative compounds of the application in pooled human and male mouse liver microsomes. The concentrations of parent compounds in reaction systems were evaluated by LC-MS/MS for estimating the stability in pooled human and male mouse liver microsomes. The in vitro intrinsic clearances of test compounds were determined as well.
(§2) A master solution in the “Incubation Plate” containing phosphate buffer, ultra-pure H2O, MgCl2 solution and liver microsomes was made according to Table 3. The mixture was pre-warmed at 37° C. water bath for 5 minutes.
(§3) 40 μL of 10 mM NADPH solution was added to each well. The final concentration of NADPH was 1 mM. The negative control samples were prepared by replacing NADPH with 40 μL of ultra-pure H2O. Samples were prepared in duplicate. Negative controls were prepared in singlet.
(§4) The reaction was started with the addition of 4 μL of 200 μM test compounds or control compounds to each master solution to get the final concentration of 2 μM. This study was performed in duplicate.
(§5) Aliquots of 50 μL were taken from the reaction solution at 0, 15, 30, 45 and 60 minutes. The reaction solutions were stopped by the addition of 4 volumes of cold methanol with IS (100 nM alprazolam, 200 nM imipramine, 200 nM labetalol and 2 μM ketoprofen). Samples were centrifuged at 3,220 g for 40 minutes. Aliquot of 90 μL of the supernatant was mixed with 90 μL of ultra-pure H2O and then was used for LC-MS/MS analysis.
(§6) LC/MS analysis was performed for all samples from this study using a Shimadzu liquid chromatograph separation system equipped with degasser DGU-20A5R; solvent delivery unit LC-30AD; system controller SIL-30AC; column oven CTO-30A; CTC Analytics HTC PAL System. Mass spectrometric analysis was performed using a Triple Quad™ 5500 instrument.
(§7) All calculations were carried out using Microsoft Excel. Peak areas were determined from extracted ion chromatograms. The slope value, k, was determined by linear regression of the natural logarithm of the remaining percentage of the parent drug vs. incubation time curve.
(§8) The in vitro half-life (in vitro t1/2) was determined from the slope value:
(§9) Conversion of the in vitro t1/2 (min) into the in vitro intrinsic clearance (in vitro CLint, in μL/min/mg proteins) was done using the following equation (mean of duplicate determinations): […]

[4] = test system: Male, C57BL/6J mice; assay: Mouse head twitch; type: in vivo; conditions: for head twitches (mean): counted over 1 hr, male C57BL/6J mice
Description: The effect of different doses of representative compounds of Formula I were evaluated on head-twitch response (HTR) and other behavioural responses as behavior-based models of psychedelic activity.
Male, C57BL/6J mice (body weight range 20-30 g) were dosed with the appropriate dose of test article, and following a 1-minute pre-treatment time, placed in individual observation chambers. Animals were visually assessed for the incidence head twitches continuously over a 1 hr period. Head twitches were defined as a rapid jerk of the head which was not elicited by an external tactile stimulus (Come and Pickering, Psychopharmacologia, 1967, 11(1): 65-78). Each head twitch was individually counted by a trained observer, and the data was expressed as the mean±SEM of 6-10 mice per group. Mice were used in a single experiment only.
The head twitch response of exemplary compound II-1 (1-30 mg/kg SC) was compared to 5-MeO DMT and psilocybin (FIG. 1, Table 6).

[5] = Liver microsomes stability, human; conditions: for Predicted hepatic CL: human liver microsomes; for Remaining Percentage / CLint scaled at 2 μM / half-life at 2 μM / microsomal CLint at 2 μM: human; for CLint scaled at 2 μM / half-life at 2 μM / microsomal CLint at 2 μM: pooled liver microsomes
Description: as §1, §2, §3, §4, §5, §6, §7, §8, §9

## COc1ccc2c(c1)C(CCN(C)C)CN2 (stereo not shown) [II-1, 2-(5-Methoxyindolin-3-yl)-N,N-dimethylethan-1-amine]
[1]; With NADPH, 0 min
  Remaining Percentage: 100.00%
[1]; With NADPH, 30 min
  Remaining Percentage: 20.42%
[1]; With NADPH, 60 min
  Remaining Percentage: 5.99%
[1]; Without NADPH, 0 min
  Remaining Percentage: 100.00%
[1]; Without NADPH, 30 min
  Remaining Percentage: 86.92%
[1]; Without NADPH, 60 min
  Remaining Percentage: 87.15%
[1]
  CLint scaled at 2 μM: 168 mL/min/kg
  Predicted hepatic CL: 41.56 mL/min/kg
  half-life at 2 μM: 14.8 min
  microsomal CLint at 2 μM: 93.8 µL/min/mg
[2]
  RFU@10 μM: 1813 and 1180
  EC50: 202 nM and 274 nM
[3]
  CLint scaled at 2 μM: 368 mL/min/kg
  half-life at 2 μM: 16.5 min
  microsomal CLint at 2 μM: 84.2 µL/min/mg
  Predicted hepatic CL: 72.33 mL/min/kg
[3]; With NADPH, 0 min
  Remaining Percentage: 100.00%
[3]; With NADPH, 30 min
  Remaining Percentage: 31.98%
[3]; With NADPH, 60 min
  Remaining Percentage: 8.00%
[3]; Without NADPH, 0 min
  Remaining Percentage: 100.00%
[3]; Without NADPH, 30 min
  Remaining Percentage: 117.83%
[3]; Without NADPH, 60 min
  Remaining Percentage: 113.85%
[4]; 0.3 mg/kg SC
  head twitches (mean): 3.2
[4]; 1 mg/kg SC
  head twitches (mean): 3.8
[4]; 3 mg/kg SC
  head twitches (mean): 3.6
[4]; 10 mg/kg SC
  head twitches (mean): 2.3
[4]; 30 mg/kg SC, 2/5 mice
  mice with some 5-HT syndrome associated behaviours: 40%
[4]; 30 mg/kg SC
  head twitches (mean): 4.2
[4]; SC, dose range as in the sentence
  head twitch response (in words): only a modest head twitch response
[4]; SC, psilocybin 3 and 10 mg/kg, 5-MeO DMT 3-30 mg/kg, II-1 0.3-30 mg/kg
  other behavioural signs (locomotion, core body temperature, 5-HT syndrome) in words: No overt signs of hypolocomotion or 5-HT syndrome
[4]; at 30 mg/kg SC, mean±SEM
  peak head twitch response: 4.2±0.7 twitches
[5]
  Predicted hepatic CL: 14.13 mL/min/kg
  CLint scaled at 2 μM: 44.5 mL/min/kg
  half-life at 2 μM: 39 min
  microsomal CLint at 2 μM: 35.5 µL/min/mg
[5]; With NADPH, 0 min
  Remaining Percentage: 100.00%
[5]; With NADPH, 30 min
  Remaining Percentage: 65.37%
[5]; With NADPH, 60 min
  Remaining Percentage: 34.47%
[5]; Without NADPH, 0 min
  Remaining Percentage: 100.00%
[5]; Without NADPH, 30 min
  Remaining Percentage: 89.91%
[5]; Without NADPH, 60 min
  Remaining Percentage: 83.49%

## [2H]C([2H])([2H])Oc1ccc2c(c1)C(CCN(C)C)CN2 (stereo not shown) [Compound I-11, 2-(5-(Methoxy-d3)indolin-3-yl)-N,N-dimethylethan-1-amine]
[1]; With NADPH, 0 min
  Remaining Percentage: 100.00%
[1]; With NADPH, 30 min
  Remaining Percentage: 22.43%
[1]; With NADPH, 60 min
  Remaining Percentage: 6.59%
[1]; Without NADPH, 0 min
  Remaining Percentage: 100.00%
[1]; Without NADPH, 30 min
  Remaining Percentage: 102.53%
[1]; Without NADPH, 60 min
  Remaining Percentage: 85.67%
[1]
  CLint scaled at 2 μM: 162 mL/min/kg
  Predicted hepatic CL: 41.20 mL/min/kg
  half-life at 2 μM: 15.3 min
  microsomal CLint at 2 μM: 90.7 µL/min/mg
[2]
  RFU@10 μM: 980
  EC50: 19 nM
[3]
  CLint scaled at 2 μM: 334 mL/min/kg
  half-life at 2 μM: 18.2 min
  microsomal CLint at 2 μM: 76.3 µL/min/mg
  Predicted hepatic CL: 70.89 mL/min/kg
[3]; With NADPH, 0 min
  Remaining Percentage: 100.00%
[3]; With NADPH, 30 min
  Remaining Percentage: 31.50%
[3]; With NADPH, 60 min
  Remaining Percentage: 10.14%
[3]; Without NADPH, 0 min
  Remaining Percentage: 100.00%
[3]; Without NADPH, 30 min
  Remaining Percentage: 94.39%
[3]; Without NADPH, 60 min
  Remaining Percentage: 80.37%
[5]
  Predicted hepatic CL: 12.66 mL/min/kg
  CLint scaled at 2 μM: 32.6 mL/min/kg
  half-life at 2 μM: 53.4 min
  microsomal CLint at 2 μM: 26 µL/min/mg
[5]; With NADPH, 0 min
  Remaining Percentage: 100.00%
[5]; With NADPH, 30 min
  Remaining Percentage: 72.72%
[5]; With NADPH, 60 min
  Remaining Percentage: 45.89%
[5]; Without NADPH, 0 min
  Remaining Percentage: 100.00%
[5]; Without NADPH, 30 min
  Remaining Percentage: 97.58%
[5]; Without NADPH, 60 min
  Remaining Percentage: 92.20%
